# Data: US7101988B2, “Polyvalent cation-sensing receptor in Atlantic salmon” (MariCal, Inc., priority 2000, dated 2006)
# Changes are numbered by the printed parent chain. Like-named read-outs stand apart in the source and are kept apart here.
# Key:
# [1] = biological target: T1, HuPCaR (Homo sapiens, UniProt P41180); conditions: HuPCaR with Arg at AA #227; read-out: EC50 Ca2+; cited from earlier work
# T1 sequence (P41180 20-1078): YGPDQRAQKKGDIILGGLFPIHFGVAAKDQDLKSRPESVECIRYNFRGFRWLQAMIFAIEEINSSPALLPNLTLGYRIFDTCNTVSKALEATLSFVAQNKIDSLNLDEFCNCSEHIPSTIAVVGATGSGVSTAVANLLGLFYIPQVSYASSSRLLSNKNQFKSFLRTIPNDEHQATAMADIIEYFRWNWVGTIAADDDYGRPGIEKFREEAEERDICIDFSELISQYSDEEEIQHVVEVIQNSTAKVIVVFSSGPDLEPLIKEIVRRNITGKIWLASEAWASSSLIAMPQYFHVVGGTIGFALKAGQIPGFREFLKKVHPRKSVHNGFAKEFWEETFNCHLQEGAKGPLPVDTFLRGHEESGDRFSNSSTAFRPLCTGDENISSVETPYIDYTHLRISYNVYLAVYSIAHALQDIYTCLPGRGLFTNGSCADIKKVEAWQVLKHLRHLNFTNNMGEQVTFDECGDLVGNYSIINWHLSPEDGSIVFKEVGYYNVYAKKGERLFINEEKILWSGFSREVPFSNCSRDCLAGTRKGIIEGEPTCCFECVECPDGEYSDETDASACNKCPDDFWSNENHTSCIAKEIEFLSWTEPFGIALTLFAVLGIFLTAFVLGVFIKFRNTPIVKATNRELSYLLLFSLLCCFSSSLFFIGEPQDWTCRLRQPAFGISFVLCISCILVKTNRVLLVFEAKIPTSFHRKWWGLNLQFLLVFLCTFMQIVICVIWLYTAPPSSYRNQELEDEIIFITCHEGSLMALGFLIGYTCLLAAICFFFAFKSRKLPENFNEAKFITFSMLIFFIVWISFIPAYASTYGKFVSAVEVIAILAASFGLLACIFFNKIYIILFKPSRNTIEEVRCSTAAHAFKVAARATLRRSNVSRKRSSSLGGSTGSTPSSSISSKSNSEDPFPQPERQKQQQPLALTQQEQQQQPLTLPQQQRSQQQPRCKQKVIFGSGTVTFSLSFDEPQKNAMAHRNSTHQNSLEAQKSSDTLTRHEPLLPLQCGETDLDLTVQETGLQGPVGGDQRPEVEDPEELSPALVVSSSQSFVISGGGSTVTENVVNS
# [2] = biological target: T2, HuPCaR (Homo sapiens, UniProt P41180, R227L); conditions: HuPCaR AA #227 altered to Leu; read-out: EC50 Ca2+; cited from earlier work
# T2 sequence (P41180 20-1078 R227L): T1 sequence (P41180 20-1078) with R208L
# [3] = test system: olfactory epithelium of freshwater adapted juvenile Atlantic salmon; experiment: Extracellular electrical potentials (EEG) from olfactory nerve; assay type: in vivo; conditions: for effect on olfactory epithelium response to mammalian finger rinse: 5 mM Ca2+ or 50 micromolar Gd3+; for effect on olfactory nerve response to 500 micromolar L-alanine: 5 mM Ca2+, 50 micromolar Gd3+ or 250 mM NaCl; for olfactory nerve response to stimulus: 500 micromolar L-alanine, 1 mM Ca2+, 250 mM NaCl, 50 micromolar Gd3+
# From the text: Physiol. A 127:157–166 (1975), and Hubbard, P C, et al., Olfactory sensitivity to changes in environmental Ca2+ in the marine teleost Sparus Aurata, J. Exp. Biol. 203:3821–3829 (2000). After anaesthetizing the fish, it was placed in V-clamp apparatus where its gills were irrigated continuously with aerated seawater and its nasal lamellae bathed continuously by a stream of distilled water via a tube held in position in the inhalant olfactory opening. The olfactory nerves of the fish were exposed by removal of overlying bony structures. Stimuli were delivered as boluses to the olfactory epithelium via a 3 way valve where 1 cc of water containing the stimulus was rapidly injected into the tube containing a continuously stream of distilled water. […] Using this experimental approach, stable and reproducible recordings could be obtained for up to 6 hr after the initial surgery on the fish.
# [4] = test system: SKCaR; experiment: FURA 2 based assay of SKCaR activation in transfected HEK cells; assay type: cell-based, dogfish shark (Squalus acanthias); conditions: for effect of amino acids on SKCaR's response to Ca2+: 10 mM Phe, 10 mM Ile or AA Mixture, FURA-2; for alteration in SKCaR sensitivity to Ca2+: increasing extracellular NaCl, sucrose as osmolality control
# From the text: SKCaR cDNA was ligated into the mammalian expression vector PCDNA II and transfected into HEK cells using standard techniques. The presence of SKCaR protein in transfected cells was verified by western blotting. Activation of SKCaR by extracellular Ca2+, Mg2+ or NaCl was quantified using a well characterized FURA 2 based assay where increases in intracellular Ca2+ produced by SKCaR activation are detected using methodology published previously by Bai, M., S. Quinn, S. Trvedi, O. Kifor, S. H. S. Pearce, M. R. Pollack, K. Krapcho, S. C. Hebert and E. M. Brown. Expression and characterization of inactivating and activating mutations in the human Ca2+-sensing receptor. J. Biol. Chem., 32:19537–19545 (1996); and expressed as % normalized intracellular calcium response to receptor activation.
# Full length recombinant dogfish (Squalas acanthias) shark kidney calcium receptor (SKCaR) was expressed in human embryonic kidney cells using methods described herein. The ability of SKCaR to respond to individual amino acids as well as various mixtures was quantified using FURA-2 ratio imaging fluorescence.
# Baseline extracellular Ca^2+ concentration was 0.5 mM. Aliquots of Ca^2+ were added to produce final extracellular concentrations of 2.5 mM, 5 mM, 7.5 mM, 10 mM and 20 mM Ca^2+ with changes in the fluorescence recorded. Note that increases in cell fluorescence were greater in the presence of 10 mM Phe for extracellular Ca^2+ concentrations less than 10 mM.
# [5] = normalized to response to 10 mM Ca2+
smiles,measurement,setting,value
"[Ca+2] [Ca2+, calcium]",EC50,[1],4 mM
same,EC50,[2],9.3 mM
same,effect on olfactory epithelium response to mammalian finger rinse,[3],reversibly ablated the response
same,effect on olfactory nerve response to 500 micromolar L-alanine,[3],complete loss of the corresponding response
same,olfactory nerve response to stimulus,[3],produce responses in EEG activity
same,EC50,"[3]; normalized to response to 10 mM Ca2+, read-out: half maximal excitatory response (EC50)",0.001 to 0.01 mM
same,effect of added Ca2+ on sensitivity of SKCaR to Mg2+,"[4]; 3 mM Ca2+ added, as a function of extracellular NaCl",increases the sensitivity of SKCaR to Mg2+
same,EC50,"[4]; depending on the extracellular concentration of NaCl, read-out: half maximal activation of SKCaR by extracellular Ca2+",1 to 15 mM
same,EC50,"[4]; extracellular NaCl 50 mM, read-out: EC50 for Ca2+",< 5 mM
same,EC50,"[4]; extracellular NaCl 550 mM, read-out: EC50 for Ca2+",~18 mM
"[Gd+3] [Gd^3+, gadolinium]",effect on olfactory epithelium response to mammalian finger rinse,[3],reversibly ablated the response
same,effect on olfactory nerve response to 500 micromolar L-alanine,[3],complete loss of the corresponding response
same,olfactory nerve response to stimulus,[3],obtained a response
same,concentration at which olfactory epithelium responses occur,[3]; [5],1 to 10 µM
"CC[C@H](C)[C@H](N)C(=O)O [Ile, L-Isoleucine]",effect of amino acids on SKCaR's response to Ca2+,[4],increase SKCaR's response to a given Ca^2+ concentration
C[C@H](N)C(=O)O [L-alanine],duration of olfactory nerve response,[3]; 500 micromolar,approximately 2 seconds
same,olfactory nerve response to stimulus,[3],large increases in both the firing frequency and amplitude in the olfactory nerve
"[Mg+2] [Mg2+, magnesium]",concentration at which olfactory epithelium responses occur,[3]; [5],10 to 100 µM
same,range of extracellular Mg2+ in which SKCaR is activated,[4],5 to 40 mM
same,EC50,"[4]; extracellular NaCl 50 mM, read-out: EC50 for Mg2+",< 20 mM
same,EC50,"[4]; extracellular NaCl 550 mM, read-out: EC50 for Mg2+",~80 mM
"[Cl-].[Na+] [NaCl, sodium chloride]",effect on olfactory nerve response to 500 micromolar L-alanine,[3],resulted initially in a similar response
same,olfactory nerve response to stimulus,[3],produce responses in EEG activity
same,concentration until which olfactory epithelium is unresponsive,[3]; in vivo,250 millimolar
same,alteration in SKCaR sensitivity to Ca2+,[4],reduce the sensitivity of SKCaR to Ca2+
"N[C@@H](Cc1ccccc1)C(=O)O [Phe, L-Phenylalanine]",effect of amino acids on SKCaR's response to Ca2+,[4],increase SKCaR's response to a given Ca^2+ concentration
same,increases in cell fluorescence,"[4]; 10 mM, extracellular Ca2+ less than 10 mM",greater
OC[C@H]1O[C@@](CO)(O[C@H]2O[C@H](CO)[C@@H](O)[C@H](O)[C@H]2O)[C@@H](O)[C@@H]1O [sucrose],alteration in SKCaR sensitivity to Ca2+,[4],not observed
